Data: PubChem BioAssay AID248 (DTP/NCI, 2004)
Values joined by “and” are separate entries in the source; they are usually repeats but may differ in a detail not shown here. Equal values may be shown once. Toxic doses and inconclusive results are not listed.

Test system: L1210 leukemia ip in BDF1 mice, survival T/C
Test: NCI In Vivo Anticancer Drug Screen. Data for tumor model L1210 Leukemia (intraperitoneal) in B6D2F1 (BDF1) mice
Conditions: endpoint: mean survival time, higher = longer survival
Method in brief: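 Tumor was transplanted into mice, which were then dosed with test compound or vehicle alone. Survival was recorded for each group, and the treated figure was expressed relative to the control figure.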

[1] = dose: 100.0 mg/kg/injection, schedule: Q01DX001 (ip), vehicle: other
[2] = dose: 100.0 mg/kg/injection, schedule: Q04DX003 (ip), vehicle: saline with Tween-80
[3] = dose: 200.0 mg/kg/injection, schedule: Q04DX003 (ip), vehicle: saline with Tween-80
[4] = dose: 400.0 mg/kg/injection, schedule: Q04DX003 (ip), vehicle: saline with Tween-80
[5] = dose: 100.0 mg/kg/injection, schedule: Q01DX009 (ip), vehicle: saline with Tween-80
[6] = dose: 400.0 mg/kg/injection, schedule: Q01DX009 (ip), vehicle: saline with Tween-80
[7] = dose: 50.0 mg/kg/injection, schedule: Q01DX001 (ip), vehicle: carboxymethylcellulose (CMC)
[8] = dose: 100.0 mg/kg/injection, schedule: Q01DX001 (ip), vehicle: carboxymethylcellulose (CMC)
[9] = dose: 200.0 mg/kg/injection, schedule: Q01DX001 (ip), vehicle: carboxymethylcellulose (CMC)
[10] = dose: 400.0 mg/kg/injection, schedule: Q01DX001 (ip), vehicle: carboxymethylcellulose (CMC)

C=CCn1cnc2c(=S)nc[nH]c21
T/C (dose: 12.0 mg/kg/injection, schedule: Q01DX015 (ip), vehicle: other): 124 % of control
T/C (dose: 37.5 mg/kg/injection, schedule: Q01DX Z (ip), vehicle: alkali diluted with saline): 166 % of control
T/C (dose: 63.0 mg/kg/injection, schedule: Q01DX015 (ip), vehicle: other): 92 % of control
T/C (dose: 75.0 mg/kg/injection, schedule: Q01DX Z (ip), vehicle: alkali diluted with saline): 114 % of control
T/C [1]: 116 % of control
T/C (dose: 108.0 mg/kg/injection, schedule: Q01DX015 (ip), vehicle: other): 87 % of control
T/C (dose: 150.0 mg/kg/injection, schedule: Q01DX Z (ip), vehicle: alkali diluted with saline): 92 % of control

O=C(/C=C\c1ccccc1)c1ccc(Cl)cc1
T/C (dose: 100.0 mg/kg/injection, schedule: Q01DX009 (ip), vehicle: Klucel (hydroxypropylcellulose) (HPC)): 97 % of control
T/C (dose: 200.0 mg/kg/injection, schedule: Q01DX009 (ip), vehicle: Klucel (hydroxypropylcellulose) (HPC)): 97 % of control
T/C (dose: 400.0 mg/kg/injection, schedule: Q01DX009 (ip), vehicle: Klucel (hydroxypropylcellulose) (HPC)): 100 % of control

O=C(O)c1c2ccc(Cl)cc2nc2[nH]c(=O)[nH]c(=O)c12
T/C (dose: 100.0 mg/kg/injection, schedule: Q04DX002 (ip), vehicle: Klucel (hydroxypropylcellulose) (HPC)): 108 % of control
T/C (dose: 200.0 mg/kg/injection, schedule: Q04DX002 (ip), vehicle: Klucel (hydroxypropylcellulose) (HPC)): 120 % of control
T/C (dose: 400.0 mg/kg/injection, schedule: Q04DX002 (ip), vehicle: Klucel (hydroxypropylcellulose) (HPC)): 113 % of control

CC(=O)Oc1cc(OC(C)=O)c(Oc2cc(OC(C)=O)c(OC(C)=O)c(OC(C)=O)c2)c(OC(C)=O)c1
T/C [2]: 97 % of control
T/C [3]: 95 % of control
T/C [4]: 90 % of control

Cc1cccc(C)c1NC(=S)NNC(=O)c1ccncc1
T/C [5]: 97 % of control
T/C (dose: 100.0 mg/kg/injection, schedule: Q04DX002 (ip), vehicle: saline with Tween-80): 101 % of control
T/C (dose: 200.0 mg/kg/injection, schedule: Q04DX002 (ip), vehicle: saline with Tween-80): 96 % of control
T/C [6]: 100 % of control
T/C (dose: 400.0 mg/kg/injection, schedule: Q04DX002 (ip), vehicle: saline with Tween-80): 101 % of control

C=CCCN(c1ccc(C(=O)OCC)cc1)S(=O)(=O)c1ccc(C)cc1
T/C [7]: 102 % of control
T/C [8]: 100 % of control
T/C [9]: 107 % of control
T/C [10]: 96 % of control

CC(/C=N/NC(N)=S)=N\NC(N)=S
T/C (dose: 12.5 mg/kg/injection, schedule: Q01DX Z (oral), vehicle: carboxymethylcellulose (CMC)): 106 % of control
T/C (dose: 25.0 mg/kg/injection, schedule: Q01DX Z (oral), vehicle: carboxymethylcellulose (CMC)): 113 % of control
T/C [7]: 97 % of control
T/C (dose: 50.0 mg/kg/injection, schedule: Q01DX Z (ip), vehicle: carboxymethylcellulose (CMC)): 95 % of control
T/C (dose: 50.0 mg/kg/injection, schedule: Q01DX Z (oral), vehicle: carboxymethylcellulose (CMC)): 113 % of control
T/C [8]: 101 % of control
T/C (dose: 100.0 mg/kg/injection, schedule: Q01DX Z (ip), vehicle: carboxymethylcellulose (CMC)): 100 % of control
T/C (dose: 100.0 mg/kg/injection, schedule: Q01DX Z (oral), vehicle: carboxymethylcellulose (CMC)): 124 % of control
T/C [9]: 91 % of control
T/C (dose: 200.0 mg/kg/injection, schedule: Q01DX Z (ip), vehicle: carboxymethylcellulose (CMC)): 103 % of control
T/C [10]: 97 % of control
T/C (dose: 400.0 mg/kg/injection, schedule: Q01DX Z (ip), vehicle: carboxymethylcellulose (CMC)): 103 % of control

CCOC(=O)C1C(=O)C(C(=O)Nc2ccccc2)C(=O)C(C(=O)OCC)C1c1ccc(O)cc1 (stereo not given)
T/C [1]: 91 % of control and 97 % of control
T/C [5]: 102 % of control and 100 % of control
T/C [2]: 103 % of control and 97 % of control
T/C (dose: 200.0 mg/kg/injection, schedule: Q01DX001 (ip), vehicle: other): 94 % of control and 91 % of control
T/C (dose: 200.0 mg/kg/injection, schedule: Q01DX009 (ip), vehicle: saline with Tween-80): 96 % of control and 100 % of control
T/C [3]: 97 % of control
T/C [6]: 100 % of control and 101 % of control
T/C [4]: 97 % of control and 96 % of control
